Measurements: patent US20260103485A1, “COMPOUND BASED ON OXIDATIVE STRESS AND ANTI-AMYLOID AGGREGATION MECHANISM, PREPARATION METHOD THEREFOR AND USE THEREOF” (SHENZHEN RAYTONE PHARMACEUTICAL CO., LTD, priority 2022, published 2026)
“Also recorded” adds a separate entry of the source.

Experiments:
mice presbyopia model = experiment: Pharmacodynamic study on mice presbyopia model (lens thickness deformation under fixed pressure); assay type: in vivo, Mice (C57BL/6J); conditions: 1.5% (w/w) eye drops; for Lens thickness (deformation): 8 months old C57BL/6J mice, left eye, 3 times a day, 45 consecutive days, micrometer screw after fixed pressure, 5 lenses; for Therapeutic effect on elastic recovery of aged mice: conclusion, 45 days
Source text: Mice (8 months old, C57BL/6J), normal grade.
The mice were randomly divided into 4 groups with 5 mice in each group. • 1) Model group (MG): normal saline eye drops were dripped into the left eye for 45 consecutive days, 3 times a day. • 2) Compound 1 Group (group 1, G1): 1.5% (w/w) compound 1 eye drops were dripped into the left eye for 45 consecutive days, 3 times a day. • 3) Compound 2 Group (group 2, G2): 1.5% (w/w) compound 2 eye drops were dripped into the left eye for 45 consecutive days, 3 times a day. • 4) 3,3′-dithiodipropionic acid group (group d, Gd): 1.5% (w/w) 3,3′-dithiodipropionic acid eye drops were dripped into the left eye for 45 consecutive days, 3 times a day.
Measurement of lens thickness deformation: After 45 consecutive days of eye dripping, mice were euthanized with carbon dioxide and flushed with saline. Lens thickness was measured using a micrometer screw after applying a fixed pressure.

[1] = test system: sodium selenite-induced New Zealand rabbit cataract model; experiment: Pharmacodynamic study on sodium selenite-induced New Zealand rabbit cataract model (slit lamp lens opacity grading); assay type: in vivo; conditions: 1.5% (w/w) eye drops; for Effect compared with the core fragment compound c (Gc) group / Effect compared with the core fragment compound d (Gd) group / Effect compared with the model group (MG): chi-square test, p<0.05; for Therapeutic effect on the sodium selenite-induced cataract model: conclusion; for Number of lenses with lens opacity grade I: Grade I: vacuoles in periphery or anterior cortex of lens; for Number of lenses with lens opacity grade II: Grade II: slightly increased density of lens nucleus; for Number of lenses with lens opacity grade III: Grade III: translucent lens nucleus; for Number of lenses with lens opacity grade IV: Grade IV: opacity of lens nucleus not involving cortex
Procedure: Neonatal New Zealand rabbits were P7 days old in ordinary grade, and 5 baby rabbits per litter were breastfed with one mother rabbit.
The young rabbits were randomly divided into 6 groups with 5 rabbits in each group. • 1) Normal control group (CG): Normal feeding. • 2) Disease model group (MG): At day P10, young rabbits were injected subcutaneously with sodium selenite solution (in normal saline) at 20 μmol/kg body weight. After day P15, normal saline eye drops were dripped into the left eye 3 times a day for 30 consecutive days. • 3) Compound 1 group (group 1, G1): At day P10, young rabbits were injected subcutaneously with sodium selenite solution (in normal saline) at 20 μmol/kg body weight. After day P15, 1.5% (w/w) compound 1 eye drops were dripped into the left eye 3 times a day for 30 consecutive days. • 4) Compound 2 group (group 2, G2): At day P10, young rabbits were injected subcutaneously with sodium selenite solution (in normal saline) at 20 μmol/kg body weight of. After day P15, 1.5% (w/w) compound 2 eye drops were dripped into the left eye 3 times a day for 30 consecutive days. • 5) Compound c group (group c, Gc): At day P10, young rabbits were injected subcutaneously with sodium selenite solution (in normal saline) at 20 μmol/kg body weight. After day P15, 1.5% (w/w) compound c eye drops were dripped into the left eye 3 times a day for 30 consecutive days. • 6) 3,3′-dithiodipropionic acid group (group d, Gd): At day P10, young rabbits were injected subcutaneously with sodium selenite solution (in normal saline) at 20 μmol/kg body weight. After day P15, 1.5% (w/w) 3,3′-dithiodipropionic acid eye drops were dripped into the left eye 3 times a day for 30 consecutive days.
Slit lamp observation: Slit lamp observation was performed on each group of sodium selenite-induced neonatal New Zealand rabbits before the administration, and 7 days, 14 days, and 30 days after the administration respectively, and the degree of lens opacity was graded to determine the therapeutic effect. Lens opacity grading standard [Hiraoka T, Clark J I. Inhibition of lens opacification during the early stages of cataract formation[J].

[2] = of 5 lenses, left eye, 3 times a day, 30 consecutive days

| SMILES | Lens thickness (deformation) (mice presbyopia model) | Therapeutic effect on elastic recovery of aged mice (mice presbyopia model) | Effect compared with the core fragment compound c (Gc) group [1] | Effect compared with the core fragment compound d (Gd) group [1] | Effect compared with the model group (MG) [1] | Therapeutic effect on the sodium selenite-induced cataract model [1] | Number of lenses with lens opacity grade I [1, 2] | Number of lenses with lens opacity grade II [1, 2] | Number of lenses with lens opacity grade III [1, 2] | Therapeutic effect on elastic recovery of aged mice (mice presbyopia model; listed as G1) | Number of lenses with lens opacity grade IV [1, 2] | Number of lenses with lens opacity grade V ([1]; of 5 lenses, left eye, 3 times a day, 30 consecutive days, Grade V: opacity of lens nucleus and perinuclear cortex) | Number of lenses with lens opacity grade VI ([1]; of 5 lenses, left eye, 3 times a day, 30 consecutive days, Grade VI: complete opacity of lens) |
| --- | --- | --- | --- | --- | --- | --- | --- | --- | --- | --- | --- | --- | --- |
| C[C@H](CCCC(C)(C)OC(=O)CCSSCCC(=O)O)[C@H]1CC[C@@]2(C)C3=C(CC[C@]12C)[C@@]1(C)CC[C@H](OC(=O)CCSSCCC(=O)O)C(C)(C)[C@@H]1CC3 [Compound 2] | 1.51 ± 0.02 | significant therapeutic effects | significantly superior | significantly superior | significantly superior | significant therapeutic effects; also recorded: best therapeutic effect | 3 | 1 | 1 | – | – | – | – |
| C[C@H](CCCC(C)(C)O)C1CC[C@@]2(C)C3=C(CC[C@]12C)[C@@]1(C)CC[C@H](OC(=O)CCSSCCC(=O)O)C(C)(C)[C@@H]1CC3 (stereo partly drawn) [Compound 1] | 1.42 ± 0.03 | significant therapeutic effects | significantly superior | significantly superior | significantly superior | significant therapeutic effects | 1 | 2 | 1 | most significant effect | 1 | – | – |
| C[C@H](CCCC(C)(C)O)[C@H]1CC[C@@]2(C)C3=C(CC[C@]12C)[C@@]1(C)CC[C@H](O)C(C)(C)[C@@H]1CC3 [Compound c, reference compound] | – | – | – | – | – | – | – | 2 | 3 | – | – | – | – |
| O=C(O)CCSSCCC(=O)O [3,3′-dithiodipropionic acid, reference compound] | 1.55 ± 0.01 | – | – | – | – | – | – | – | 1 | – | 2 | 1 | 1 |
